# Assay results reported in ChEMBL document CHEMBL4616596, “Structural insights into the active site of poly(ADP-ribose) glycohydrolase using docking modes of 6-hydroxy-3H-xanthen-3-one derivative inhibitors” (Bioorg Med Chem, 2020).
# Biological target: Poly(ADP-ribose) glycohydrolase (Homo sapiens, UniProt Q86W56)
# Assay: Inhibition of recombinant human PARG assessed as mono(ADP-R) release using PAR as substrate measured after 15 mins by HPLC analysis
# Sequence of Poly(ADP-ribose) glycohydrolase (Q86W56 whole entry): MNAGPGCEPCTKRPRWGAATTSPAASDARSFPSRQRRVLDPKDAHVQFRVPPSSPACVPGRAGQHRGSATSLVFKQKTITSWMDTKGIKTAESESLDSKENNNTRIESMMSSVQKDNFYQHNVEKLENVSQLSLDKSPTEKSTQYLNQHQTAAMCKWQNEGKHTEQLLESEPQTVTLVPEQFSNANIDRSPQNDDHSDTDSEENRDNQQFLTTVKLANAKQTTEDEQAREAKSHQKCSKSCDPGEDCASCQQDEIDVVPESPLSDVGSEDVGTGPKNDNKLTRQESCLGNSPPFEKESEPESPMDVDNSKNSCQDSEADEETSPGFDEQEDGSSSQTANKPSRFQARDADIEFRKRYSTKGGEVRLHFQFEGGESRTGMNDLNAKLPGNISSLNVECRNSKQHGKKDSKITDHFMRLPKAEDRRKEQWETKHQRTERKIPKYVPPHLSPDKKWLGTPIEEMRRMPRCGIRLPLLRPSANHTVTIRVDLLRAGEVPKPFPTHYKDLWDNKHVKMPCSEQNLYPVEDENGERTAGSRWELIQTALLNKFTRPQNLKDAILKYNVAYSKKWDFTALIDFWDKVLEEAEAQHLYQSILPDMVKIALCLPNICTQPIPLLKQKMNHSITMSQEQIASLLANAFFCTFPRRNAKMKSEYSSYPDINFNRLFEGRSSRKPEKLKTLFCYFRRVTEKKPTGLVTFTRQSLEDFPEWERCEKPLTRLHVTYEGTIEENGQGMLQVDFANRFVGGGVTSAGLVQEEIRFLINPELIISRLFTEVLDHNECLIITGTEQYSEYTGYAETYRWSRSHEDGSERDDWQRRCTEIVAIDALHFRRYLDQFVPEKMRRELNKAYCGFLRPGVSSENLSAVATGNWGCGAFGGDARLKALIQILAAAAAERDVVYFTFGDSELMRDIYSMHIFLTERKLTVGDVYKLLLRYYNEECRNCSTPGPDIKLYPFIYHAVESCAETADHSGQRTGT
row,Compound,IC50
1,O=C(O)c1c(Cl)c(Cl)c(Cl)c(Cl)c1-c1c2cc(Br)c(=O)c(Br)c-2oc2c(Br)c(O)c(Br)cc12,106 µM
2,O=C(O)c1ccccc1-c1c2cc(Br)c(=O)c(Br)c-2oc2c(Br)c(O)c(Br)cc12,> 300 µM
3,O=C(O)c1ccccc1-c1c2cc(I)c(=O)c(I)c-2oc2c(I)c(O)c(I)cc12,120 µM

# Second part, the compound after the results:
row,IC50,Compound
1,61.4 µM,O=C(O)c1c(Cl)ccc(Cl)c1-c1c2cc(I)c(=O)c(I)c-2oc2c(I)c(O)c(I)cc12
2,29.7 µM,O=C(O)c1c(Cl)c(Cl)c(Cl)c(Cl)c1-c1c2cc(I)c(=O)c(I)c-2oc2c(I)c(O)c(I)cc12 [ROSE BENGAL FREE ACID]
